Test results: patent US10669272B2, “Substituted naphthyridinone compounds useful as T cell activators” (BRISTOL-MYERS SQUIBB COMPANY, priority 2018, dated 2020)
Like-named read-outs stand apart in the source and are kept apart here.

Tests used:
human DGKζ = target: T1, human DGKζ (Homo sapiens, UniProt Q13574); experiment: DGKζ LIPGLO assay (extruded liposome substrate), in vitro DGK inhibition; type: biochemical; conditions: read-out: DGKz LIPGLO IC50
T1 construct: TVMV protease cleavage site (C); Hexa-His (C); made in house; host or cells: Sf9 insect cells (baculovirus, Bac-to-Bac)

human DGKα = target: T2, human DGKα (Homo sapiens, UniProt P23743); experiment: DGKα LIPGLO assay (extruded liposome substrate), in vitro DGK inhibition; type: biochemical; conditions: read-out: DGKa LIPGLO IC50
T2 construct: TVMV protease cleavage site (C); Hexa-His (C); made in house; host or cells: Sf9 insect cells (baculovirus, Bac-to-Bac)

Human venous whole blood = experiment: Human whole blood IFN-γ assay; type: cell-based; conditions: human whole blood, read-out: INFg Whole Blood Normalized Agonist EC50;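 also: blood from healthy donors exposed to compound for 1 h before stimulation with anti-CD3 and anti-CD28 at 1 µg/mL each, IFN-γ quantified in supernatant by AlphaLISA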
[1] = normalized to 3 μM reference compound with anti-CD3 plus anti-CD28 as 100% activation
[2] = Homo sapiens, 24 h, normalized to 3 μM reference compound with anti-CD3 plus anti-CD28 as 100% activation
[3] = anti-CD3 plus anti-CD28, 24 hours, 3 μM reference compound = 100% activation
[4] = Homo sapiens, 24 h, anti-CD3 plus anti-CD28, 24 hours, 3 μM reference compound = 100% activation

T1 sequence (Q13574 with tags, fused parts or gaps isoform Q13574-4): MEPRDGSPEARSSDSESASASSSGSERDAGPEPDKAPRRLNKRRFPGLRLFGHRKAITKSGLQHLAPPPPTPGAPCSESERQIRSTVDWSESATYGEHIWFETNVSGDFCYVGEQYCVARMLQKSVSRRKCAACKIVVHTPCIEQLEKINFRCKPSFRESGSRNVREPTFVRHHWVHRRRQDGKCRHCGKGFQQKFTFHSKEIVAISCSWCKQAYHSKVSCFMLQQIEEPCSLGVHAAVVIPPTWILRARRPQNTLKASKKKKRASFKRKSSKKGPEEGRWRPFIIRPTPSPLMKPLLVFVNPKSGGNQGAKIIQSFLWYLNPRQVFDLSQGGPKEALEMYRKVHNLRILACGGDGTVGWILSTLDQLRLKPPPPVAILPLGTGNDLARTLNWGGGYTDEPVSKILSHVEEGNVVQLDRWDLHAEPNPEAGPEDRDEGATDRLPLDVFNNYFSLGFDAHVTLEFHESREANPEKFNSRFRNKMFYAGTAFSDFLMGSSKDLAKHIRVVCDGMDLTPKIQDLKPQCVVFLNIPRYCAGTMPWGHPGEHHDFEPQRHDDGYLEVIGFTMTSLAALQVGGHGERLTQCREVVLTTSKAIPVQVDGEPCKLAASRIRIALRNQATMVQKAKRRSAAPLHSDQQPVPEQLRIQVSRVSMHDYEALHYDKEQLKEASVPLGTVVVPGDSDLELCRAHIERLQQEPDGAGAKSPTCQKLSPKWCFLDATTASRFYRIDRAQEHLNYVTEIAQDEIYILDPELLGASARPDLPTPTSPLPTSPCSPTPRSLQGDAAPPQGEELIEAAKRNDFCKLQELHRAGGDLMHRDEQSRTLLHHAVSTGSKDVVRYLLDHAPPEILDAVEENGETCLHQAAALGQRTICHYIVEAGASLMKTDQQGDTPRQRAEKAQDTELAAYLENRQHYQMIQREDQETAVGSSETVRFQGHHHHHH
T2 sequence (P23743 with tags, fused parts or gaps): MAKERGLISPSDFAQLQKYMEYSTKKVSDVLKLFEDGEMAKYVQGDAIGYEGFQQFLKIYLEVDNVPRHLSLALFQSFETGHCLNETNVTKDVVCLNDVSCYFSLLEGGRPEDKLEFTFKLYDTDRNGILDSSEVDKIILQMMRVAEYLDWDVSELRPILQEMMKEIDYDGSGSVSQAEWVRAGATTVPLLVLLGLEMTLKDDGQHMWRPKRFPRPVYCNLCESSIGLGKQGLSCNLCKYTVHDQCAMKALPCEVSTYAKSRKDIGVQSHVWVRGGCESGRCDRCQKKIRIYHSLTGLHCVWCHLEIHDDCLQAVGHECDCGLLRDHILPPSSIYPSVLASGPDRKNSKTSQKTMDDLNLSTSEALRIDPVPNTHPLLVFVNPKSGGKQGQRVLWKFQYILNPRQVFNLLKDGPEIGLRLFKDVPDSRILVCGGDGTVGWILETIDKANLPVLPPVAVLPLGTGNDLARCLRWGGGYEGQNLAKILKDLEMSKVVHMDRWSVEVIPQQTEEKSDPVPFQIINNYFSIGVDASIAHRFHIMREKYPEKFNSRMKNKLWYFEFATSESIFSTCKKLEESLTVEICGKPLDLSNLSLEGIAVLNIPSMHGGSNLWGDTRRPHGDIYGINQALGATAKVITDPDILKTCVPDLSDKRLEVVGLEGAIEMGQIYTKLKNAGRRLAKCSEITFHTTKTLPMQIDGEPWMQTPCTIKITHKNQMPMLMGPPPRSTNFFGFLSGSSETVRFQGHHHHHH

SMILES	IC50 (human DGKζ; liposome (LIPGLO) assay)	IC50 (human DGKα; liposome (LIPGLO) assay)	IC50 (human DGKζ; DGKζ liposome (LIPGLO) assay)	IC50 (human DGKα; DGKα liposome (LIPGLO) assay)	EC50 (Human venous whole blood; [1])	EC50 (Human venous whole blood; [2])	EC50 (Human venous whole blood; [3])	EC50 (Human venous whole blood; [4])
CC(c1cc(F)cc(OC(F)(F)F)c1)N1C[C@H](C)N(c2cc(=O)n(C)c3ccc(C#N)nc23)C[C@H]1C (single isomer, unassigned) [Example 1211]	670 nM	13000 nM	–	–	8300 nM	–	–	–
CCC(c1ccc(OCCC2CC2)cc1)N1C[C@H](C)N(c2cc(=O)n(C)c3ccc(C#N)nc23)C[C@H]1C (single isomer, unassigned) [Example 1445]	3600 nM	5400 nM	–	–	5300 nM	–	–	–
C[C@@H]1CN(c2c(C#N)c(=O)n(C)c3ccc(C#N)nc23)CCN1C(c1cccc(F)c1)c1ccc(C(F)(F)F)cn1 (single isomer, unassigned) [Example 949]	–	–	1100 nM	6600 nM	–	–	20000 nM	–
C[C@@H]1CN(c2cc(=O)n(C)c3ccc(C#N)nc23)[C@@H](C)CN1C(c1ccc(OC(F)(F)F)cc1)c1nc(C2CC2)no1 (single isomer, unassigned) [Example 758]	–	–	75 nM	860 nM	–	–	–	300 nM
C[C@@H]1CN(c2cc(=O)n(C)c3ccc(C#N)nc23)[C@@H](C)CN1C(c1ccc(F)cc1)c1csc(C2CC2)n1 (single isomer, unassigned) [Example 723]	–	–	11 nM	310 nM	–	–	–	450 nM
C[C@@H]1CN(c2cc(=O)n(C)c3ccc(C#N)nc23)[C@@H](C)CN1C(c1ccc(OC(F)(F)F)cc1)c1nc(C2CC2)no1 (single isomer, unassigned) [Example 759]	–	–	290 nM	85 nM	–	–	270 nM	–
C[C@@H]1CN(c2cc(=O)n(C)c3ccc(C#N)nc23)[C@@H](C)CN1C(c1ccc(F)cc1)c1nc(N2CCOCC2)no1 (stereo partly drawn) [Example 750]	–	–	240 nM	480 nM	–	–	150 nM	–
C[C@@H]1CN(c2cc(=O)n(C)c3ccc(C#N)nc23)[C@@H](C)CN1C(c1ccc(F)cc1)c1nc(C2CCN(C)CC2)no1 (single isomer, unassigned) [Example 752]	–	–	4100 nM	1000 nM	–	–	1700 nM	–
C[C@@H]1CN(c2c(C#N)c(=O)n(C)c3ccc(C#N)nc23)CCN1C(c1ccc(F)cc1)c1cncn1C (single isomer, unassigned) [Example 1019]	–	–	5900 nM	32000 nM	–	–	20000 nM	–
CC(c1ccc(C2CC2)cc1)N1C[C@H](C)N(c2cc(=O)n(C)c3ccc(C#N)nc23)C[C@H]1C (single isomer, unassigned) [Example 1215]	680 nM	720 nM	–	–	7200 nM	–	–	–
C[C@@H]1CN(c2c(C#N)c(=O)n(C)c3ccc(C#N)nc23)[C@@H](C)CN1C(c1ccccc1)c1ccc(F)cc1 (stereo partly drawn) [Example 807]	–	–	2600 nM	5000 nM	–	–	–	2500 nM
COCCOc1cc(C(C)N2C[C@H](C)N(c3cc(=O)n(C)c4ccc(C#N)nc34)C[C@H]2C)ccc1C#N (single isomer, unassigned) [Example 1320]	160 nM	75000 nM	–	–	–	7000 nM	–	–
C[C@@H]1CN(c2c(C#N)c(=O)n(C)c3ccc(C#N)nc23)CCN1C(c1ccc(F)cc1)c1ccc(C#N)cn1 (single isomer, unassigned) [Example 908]	–	–	3900 nM	770 nM	–	–	1400 nM	–
Cc1ccnc(C(c2ccc(Cl)cc2)N2C[C@H](C)N(c3cc(=O)n(C)c4ccc(C#N)nc34)C[C@H]2C)c1 (single isomer, unassigned) [Example 448]	660 nM	660 nM	–	–	1100 nM	–	–	–
C[C@@H]1CN(c2c(C#N)c(=O)n(C)c3ccc(C#N)nc23)[C@@H](C)CN1C(c1ccccc1)c1ccc(Cl)cc1 (stereo partly drawn) [Example 835]	–	–	11000 nM	11000 nM	–	–	20000 nM	–
C[C@@H]1CN(c2c(C#N)c(=O)n(C)c3ccc(C#N)nc23)[C@@H](C)CN1C(c1cccc(F)c1)c1ccc(C(F)(F)F)cn1 (single isomer, unassigned) [Example 840]	–	–	2800 nM	22000 nM	–	–	810 nM	–
C[C@@H]1CN(c2cc(=O)n(C)c3ccc(C#N)nc23)[C@@H](C)CN1C(c1ccc(F)cc1)c1nc(C2CN(C(=O)OC(C)(C)C)C2)no1 (single isomer, unassigned) [Example 757]	–	–	160 nM	23 nM	–	–	1000 nM	–
CC[C@@H]1CN(c2cc(=O)n(C)c3ccc(C#N)nc23)[C@@H](CC)CN1Cc1ccc2c(c1)OC(F)(F)O2 [Example 1063]	1800 nM	1100 nM	–	–	–	430 nM	–	–
CCc1ccccc1C(c1ccc(F)cc1)N1C[C@H](C)N(c2c(C#N)c(=O)n(C)c3ccc(C#N)nc23)C[C@H]1C (single isomer, unassigned) [Example 810]	–	–	23000 nM	240000 nM	–	–	20000 nM	–
COCc1cc(F)ccc1C(C)N1C[C@H](C)N(c2cc(=O)n(C)c3ccc(C#N)nc23)C[C@H]1C (single isomer, unassigned) [Example 1314]	49 nM	10000 nM	–	–	–	460 nM	–	–
CC(c1ccc(P(C)(C)=O)cc1)N1C[C@H](C)N(c2cc(=O)n(C)c3ccc(C#N)nc23)C[C@H]1C (stereo partly drawn) [Example 1291]	96000 nM	97000 nM	–	–	20000 nM	–	–	–
CC[C@@H]1CN(c2cc(=O)n(C)c3ccc(C#N)nc23)[C@@H](CC)CN1Cc1ccc(OC(F)(F)F)cc1 [Example 1363]	550 nM	45 nM	–	–	–	430 nM	–	–

The next lines start with results.

IC50 (human DGKζ; liposome (LIPGLO) assay)	IC50 (human DGKα; liposome (LIPGLO) assay)	IC50 (human DGKζ; DGKζ liposome (LIPGLO) assay)	IC50 (human DGKα; DGKα liposome (LIPGLO) assay)	SMILES	EC50 (Human venous whole blood; [1])	EC50 (Human venous whole blood; [2])	EC50 (Human venous whole blood; [3])	EC50 (Human venous whole blood; [4])
8200 nM	1800 nM	–	–	C[C@@H]1CN(c2cc(=O)[nH]c3ccc(C#N)nc23)[C@@H](C)CN1C(c1ccc(F)cc1)c1ccc(C#N)cc1 (single isomer, unassigned) [Example 1337]	–	2700 nM	–	–
1900 nM	910 nM	–	–	Cc1ccc(C(c2cccc(F)n2)N2C[C@H](C)N(c3cc(=O)n(C)c4ccc(C#N)nc34)C[C@H]2C)cc1 (single isomer, unassigned) [Example 479]	2100 nM	–	–	–
17 nM	15 nM	–	–	CC[C@@H]1CN(c2cc(=O)n(C)c3ccc(C#N)nc23)[C@@H](C)CN1C(c1ccc(F)cc1)c1nc(C2CC2)no1 (stereo partly drawn) [Example 1117]	–	150 nM	–	–
120 nM	560 nM	–	–	CC[C@H]1CN(C(c2ccc(F)cc2)c2cccc(C(F)(F)F)n2)[C@H](CC)CN1c1cc(=O)n(C)c2ccc(C#N)nc12 (single isomer, unassigned) [Example 1045]	–	170 nM	–	–
–	–	1800 nM	1100 nM	C[C@@H]1CN(c2cc(=O)n(C)c3ccc(C#N)nc23)[C@@H](C)CN1C(c1ccc(F)cc1)c1cc(C2CC2)on1 (single isomer, unassigned) [Example 729]	–	–	–	2200 nM
–	–	290 nM	180 nM	Cc1cc(C(c2ccc(F)cc2)N2C[C@H](C)N(c3cc(=O)n(C)c4ccc(C#N)nc34)C[C@H]2C)no1 (single isomer, unassigned) [Example 734]	–	–	1400 nM	–
210 nM	400 nM	–	–	CC[C@@H]1CN(c2cc(=O)n(C)c3ccc(C#N)nc23)[C@@H](C)CN1C(c1ccc(F)cc1)c1ccc(F)cc1 [Example 1097]	–	660 nM	–	–
1100 nM	3400 nM	–	–	CC(=O)NC[C@@H]1CN(c2cc(=O)n(C)c3ccc(C#N)nc23)[C@@H](C)CN1C(c1ccc(F)cc1)c1ccc(F)cc1 [Example 1165, N-(((2R,5S)-1-(bis(4-fluorophenyl)methyl)-4-(6-cyano-1-methyl-2-oxo-1,2-dihydro-1,5-naphthyridin-4-yl)-5-methylpiperazin-2-yl)methyl)acetamide]	–	240 nM	–	–
1300 nM	6500 nM	–	–	COC[C@@H]1CN(c2cc(=O)n(C)c3ccc(C#N)nc23)[C@@H](C)CN1C(c1ccc(F)cc1)c1ccc(C#N)cc1 (single isomer, unassigned) [Example 1158]	350 nM	–	–	–
19000 nM	220000 nM	–	–	C[C@@H]1CN(c2cc(=O)n(C)c3ccc(C#N)nc23)[C@@H](C)CN1C(c1ccc(F)cc1)c1cncn1C (stereo partly drawn) [Example 705]	9100 nM	–	–	–
